Results taken from patent publication US7642364B2, “Benzopyrone compounds, preparation method and use thereof” (Shenyang Research Institute of Chemical Industry, priority 2003, dated 2010).

Tests used:
cucumber downy mildew = experiment: Fungicidal activity on potted plants, cucumber downy mildew; type: in vivo; details: for control(%) fungicidal activity against cucumber downy mildew: 50 ppm; for control against cucumber downy mildew: 200 ppm, spray on potted plant
cucumber grey mold = experiment: Fungicidal activity on potted plants, cucumber grey mold; type: in vivo; details: 200 ppm
culex mosquitoes = experiment: Insecticidal/acaricidal activity, culex mosquitoes; type: in vivo; details: 10 ppm
grape downy mildew = experiment: Fungicidal activity on potted plants, grape downy mildew; type: in vivo; details: 200 ppm
wheat leaf rust = experiment: Fungicidal activity on potted plants, wheat leaf rust; type: in vivo; details: 200 ppm
wheat leaf blotch = experiment: Fungicidal activity on potted plants, wheat leaf blotch; type: in vivo; details: 200 ppm
tomato late blight = type: in vivo; details: 200 ppm
Mexican lady beetle = experiment: Insecticidal/acaricidal activity, Mexican lady beetle; type: in vivo; details: 300 ppm
Description: Numerous insect larvae were put into containers then were fed with treated corn leaves. Potter's spraying tower was used as the sprayer and spraying volume was 1 mL. The spraying pressure was 13.5 lb/in^2.

two-spotted spider mite = experiment: Insecticidal/acaricidal activity, two-spotted spider mite; type: in vivo; details: 300 ppm
[1] = tested on: tomato early stage blight; experiment: Fungicidal activity on potted plants, tomato early stage blight; type: in vivo; details: 200 ppm
wheat powdery mildew = experiment: Fungicidal activity on potted plants, wheat powdery mildew; type: in vivo; details: 200 ppm
[2] = Biological evaluation of compound JP51 after synthesis; details: after synthesis and the biological evaluation
Text: Biological active data of the compound in JP04-182461 have not been disclosed.

Compound	control(%) fungicidal activity against cucumber downy mildew (cucumber downy mildew) [%]	control against cucumber downy mildew (cucumber downy mildew) [%]	further results
COC=C(C(=O)OC)c1ccccc1COc1ccc2ccc(=O)oc2c1 [Compound 1]	100	100	
COC=C(C(=O)OC)c1ccccc1COc1ccc2c(C)cc(=O)oc2c1 [Compound 2]	100	100	control against cucumber grey mold (cucumber grey mold): 100%; control of culex mosquitoes (culex mosquitoes): 100%
COC=C(C(=O)OC)c1ccccc1COc1ccc2c(-c3ccccc3)cc(=O)oc2c1C [Compound 4]		100	
COC=C(C(=O)OC)c1ccccc1COc1ccc2c(C)c(C)c(=O)oc2c1 [Compound 5]	100	100	control of culex mosquitoes (culex mosquitoes): 100%
COC=C(C(=O)OC)c1ccccc1COc1ccc2c(C)c(C)c(=O)oc2c1C [Compound 6]	100	100	control against cucumber grey mold (cucumber grey mold): 100%; control against grape downy mildew (grape downy mildew): 100%; control against wheat leaf rust (wheat leaf rust): 100%; control against wheat leaf blotch (wheat leaf blotch): > 90%; control against tomato late blight (tomato late blight): > 95%; control of culex mosquitoes (culex mosquitoes): 100%
COC=C(C(=O)OC)c1ccccc1COc1ccc2c(C(F)(F)F)cc(=O)oc2c1 [Compound 7]			control against grape downy mildew (grape downy mildew): 100%; control of Mexican lady beetle (Mexican lady beetle): 100%; control of two-spotted spider mite (two-spotted spider mite): > 50%
COC=C(C(=O)OC)c1ccccc1COc1cc2oc(=O)cc(C)c2cc1C(C)=NOC [Compound 9]			control of Mexican lady beetle (Mexican lady beetle): 100%
COC=C(C(=O)OC)c1ccccc1COc1cc2oc(=O)cc(C)c2cc1C(C)=O [Compound 10]			control against grape downy mildew (grape downy mildew): 100%; control against tomato late blight (tomato late blight): > 75%; control of Mexican lady beetle (Mexican lady beetle): 100%
COC=C(C(=O)OC)c1ccccc1COc1ccc2c(C)cc(=O)oc2c1C(C)=O [Compound 11]			control against tomato early stage blight [1]: > 75%
COC=C(C(=O)OC)c1ccccc1COc1ccc2c(C)c(Cl)c(=O)oc2c1 [Compound 12]	100	100	
CCc1c(C)c2ccc(OCc3ccccc3C(=COC)C(=O)OC)cc2oc1=O [Compound 18]		100	control against cucumber grey mold (cucumber grey mold): 100%
COC=C(C(=O)OC)c1ccccc1COc1ccc2c(COC)cc(=O)oc2c1 [Compound 19]		100	
COC=C(C(=O)OC)c1ccccc1COc1ccc2c(C)c(Cl)c(=O)oc2c1C [Compound 25]		100	
COC=C(C(=O)OC)c1ccccc1COc1ccc2c(C(C)C)cc(=O)oc2c1 [Compound 26]	100	100	
CCc1cc(=O)oc2cc(OCc3ccccc3C(=COC)C(=O)OC)ccc12 [Compound 33]		100	
CCCc1cc(=O)oc2cc(OCc3ccccc3C(=COC)C(=O)OC)ccc12 [Compound 34]		100	
CCCc1cc(=O)oc2c(C)c(OCc3ccccc3C(=COC)C(=O)OC)ccc12 [Compound 35]		100	

Compound	control(%) fungicidal activity against cucumber downy mildew (cucumber downy mildew) [%]	control against cucumber downy mildew (cucumber downy mildew) [%]	further results
CCCc1c(C)c(=O)oc2cc(OCc3ccccc3C(=COC)C(=O)OC)ccc12 [Compound 37]	100	100	
COC=C(C(=O)OC)c1ccccc1COc1ccc2c(C)c(F)c(=O)oc2c1 [Compound 50]		100	control against cucumber grey mold (cucumber grey mold): 100%
COC=C(C(=O)OC)c1ccccc1COc1ccc2c(-c3ccccc3)cc(=O)oc2c1 [Compound 52]	100	100	
COC=C(C(=O)OC)c1ccccc1COc1ccc2c(-c3ccc(OC)c(OC)c3)cc(=O)oc2c1 [Compound 58]		100	control against cucumber grey mold (cucumber grey mold): 100%
COC=C(C(=O)OC)c1ccccc1COc1ccc2c(C)c(Cc3ccccc3)c(=O)oc2c1C [Compound 69]		100	
CON=C(C(=O)OC)c1ccccc1COc1ccc2c(C)c(Cl)c(=O)oc2c1 [Compound 100]			control against cucumber grey mold (cucumber grey mold): 100%
CON=C(C(=O)OC)c1ccccc1COc1ccc2c(C)c(Cl)c(=O)oc2c1C [Compound 109]		100	
CON=C(C(=O)OC)c1ccccc1COc1cc2oc(=O)cc(-c3cccc(C(F)(F)F)c3)c2cc1C(C)=O [Compound 141]	100		
CCCCc1c(C)c2ccc(OCc3ccccc3C(=COC)C(=O)OC)cc2oc1=O [Compound 402]	100	100	control against cucumber grey mold (cucumber grey mold): 100%; control against wheat powdery mildew (wheat powdery mildew): 100%
CCCCCCc1c(C)c2ccc(OCc3ccccc3C(=COC)C(=O)OC)cc2oc1=O [Compound 405]	100	100	
CCCc1c(CCC)c2ccc(OCc3ccccc3C(=COC)C(=O)OC)cc2oc1=O [Compound 409]	100	100	
CCCc1c(Cl)c(=O)oc2cc(OCc3ccccc3C(=NOC)C(=O)OC)ccc12 [Compound 410]		100	
CCCc1c(C)c2ccc(OCc3ccccc3C(=NOC)C(=O)OC)cc2oc1=O [Compound 412]			control against wheat powdery mildew (wheat powdery mildew): 100%
CCCCc1c(C)c2ccc(OCc3ccccc3C(=NOC)C(=O)OC)cc2oc1=O [Compound 413]		100	control against wheat powdery mildew (wheat powdery mildew): 100%
CCCCCCc1c(C)c2ccc(OCc3ccccc3C(=NOC)C(=O)OC)cc2oc1=O [Compound 414]		100	
CNC(=O)/C(=N/OC)c1ccccc1COc1ccc2ccc(=O)oc2c1 [JP51, reference compound]	20		biological activity (general statement) [2]: low biological active
